Experimental data published in publication PMC10017709, “Structural basis of selective cannabinoid CB2 receptor activation” (Nature Communications, 2023).
Several values for one entry are separate records, joined by “and”; a condition that tells them apart may be missing. Equal values may be shown once.

Key:
[1] = target: hCB1R WT (Homo sapiens, UniProt P21554); experiment: [35S]GTPγS G protein activation assay, CB1R WT; type: biochemical; settings: CB1R WT; 10 µM agonist
[2] = target: T1, hCB2R (Homo sapiens, UniProt P34972); experiment: [3H]RO6957022 competition association assay; type: binding; settings: individual replicates
T1 construct: host or cells: CHO-K1 (CHOK1_hCB2bgal, PathHunter), membranes
T1 sequence (P34972 whole entry): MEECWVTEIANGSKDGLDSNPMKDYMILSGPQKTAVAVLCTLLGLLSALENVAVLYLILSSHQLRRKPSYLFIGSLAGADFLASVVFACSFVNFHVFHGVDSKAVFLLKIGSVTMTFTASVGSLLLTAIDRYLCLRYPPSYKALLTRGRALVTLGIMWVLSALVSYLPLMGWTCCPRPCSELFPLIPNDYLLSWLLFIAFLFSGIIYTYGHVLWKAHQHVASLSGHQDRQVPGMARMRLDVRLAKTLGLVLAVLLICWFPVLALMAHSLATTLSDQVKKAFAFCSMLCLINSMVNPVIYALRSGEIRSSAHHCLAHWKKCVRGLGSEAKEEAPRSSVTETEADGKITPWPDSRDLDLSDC

[3] = target: T2, CB1R D266ECL2E (Homo sapiens, UniProt P21554, D266E); experiment: [35S]GTPγS assay, CB1R D266E mutant; type: biochemical; settings: CB1R D266E; 10 µM agonist
T2 construct: The WT CB1R and CB2R genes were subcloned into vector pcDNA3.1; HA signal peptide (N); expressed in transfected cells; host or cells: HEK293T (transient, membrane homogenates)
T2 sequence (P21554 whole entry D266E): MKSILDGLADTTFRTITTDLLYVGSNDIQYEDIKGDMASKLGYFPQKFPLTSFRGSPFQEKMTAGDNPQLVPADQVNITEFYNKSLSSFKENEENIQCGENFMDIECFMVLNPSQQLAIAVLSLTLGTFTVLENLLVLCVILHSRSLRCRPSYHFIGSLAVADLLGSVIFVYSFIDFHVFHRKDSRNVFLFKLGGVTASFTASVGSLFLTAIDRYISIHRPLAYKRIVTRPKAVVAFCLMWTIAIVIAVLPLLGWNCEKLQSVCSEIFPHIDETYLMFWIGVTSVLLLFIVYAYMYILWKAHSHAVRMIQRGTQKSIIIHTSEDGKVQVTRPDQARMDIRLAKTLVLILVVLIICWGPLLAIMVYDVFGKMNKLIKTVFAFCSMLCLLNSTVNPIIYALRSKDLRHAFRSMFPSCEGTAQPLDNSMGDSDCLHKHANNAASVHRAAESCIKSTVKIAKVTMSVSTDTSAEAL

[4] = target: CB2R-L182^ECL2I (Homo sapiens, UniProt P34972, L182I); experiment: [35S]GTPγS assay, CB2R L182I mutant; type: biochemical; settings: L182I mutant; at 10 µM compared to WT; read-out: Emax (%)
Sequence of CB2R-L182^ECL2I (P34972 whole entry L182I): as the sequence (P34972 whole entry) above, with L182I counted along it

[5] = target: CB2R WT (Homo sapiens, UniProt P34972); experiment: [3H]CP55,940 displacement assay, CB2R WT; type: binding; settings: CB2R - WT, individual replicates
Sequence of CB2R WT (P34972 whole entry): as the sequence (P34972 whole entry) above

[6] = target: CB2R-L185^ECL2H (Homo sapiens, UniProt P34972, L185H); experiment: [35S]GTPγS assay, CB2R L185H mutant; type: biochemical; settings: L185H mutant; at 10 µM compared to WT; read-out: Emax (%)
Sequence of CB2R-L185^ECL2H (P34972 whole entry L185H): as the sequence (P34972 whole entry) above, with L185H counted along it

[7] = target: T3, CB1R QuadrupleTM1,7 (Homo sapiens, UniProt P21554, I119V/Q116K/S123C/T377K); experiment: [3H]CP55,940 displacement assay, CB1R quadruple mutant; type: binding
T3 construct: The WT CB1R and CB2R genes were subcloned into vector pcDNA3.1; HA signal peptide (N); expressed in transfected cells; host or cells: HEK293T (transient, membrane homogenates)
T3 sequence (P21554 whole entry Q116K/I119V/S123C/T377K): as the sequence (P21554 whole entry D266E) above, with Q116K, I119V, S123C, E266D, T377K counted along it

[8] = target: CB2R-I110^3.29L (Homo sapiens, UniProt P34972, I110L); experiment: [35S]GTPγS assay, CB2R I110L mutant; type: biochemical; settings: for [35S]GTPγS binding: I1103.29L, individual replicates
Sequence of CB2R-I110^3.29L (P34972 whole entry I110L): as the sequence (P34972 whole entry) above, with I110L counted along it

Sequence of hCB1R WT (P21554 whole entry): as the sequence (P21554 whole entry D266E) above, with E266D counted along it

Agonist-mediated activation [1]: 1.0 ± 0.0 fold over its basal
percentage specific [3H]RO6957022 binding (competition association) ([2]; Time 1 min): -7.10% and 4.75% and 12.65%
percentage specific [3H]RO6957022 binding (competition association) ([2]; Time 3 min): 13.92% and 19.07% and 26.36%
percentage specific [3H]RO6957022 binding (competition association) ([2]; Time 5 min): 13.96% and 13.94% and 24.44%
percentage specific [3H]RO6957022 binding (competition association) ([2]; Time 7 min): 24.14% and 47.87% and 28.29%
percentage specific [3H]RO6957022 binding (competition association) ([2]; Time 10 min): 24.18% and 36.84% and 30.72%
percentage specific [3H]RO6957022 binding (competition association) ([2]; Time 20 min): 40.15% and 32.14% and 34.58%
percentage specific [3H]RO6957022 binding (competition association) ([2]; Time 30 min): 39.61% and 32.25% and 36.63%
percentage specific [3H]RO6957022 binding (competition association) ([2]; Time 45 min): 20.89% and 29.77% and 37.77%
percentage specific [3H]RO6957022 binding (competition association) ([2]; Time 60 min): 31.24% and 38.79% and 36.98%
percentage specific [3H]RO6957022 binding (competition association) ([2]; Time 90 min): 31.73% and 32.90% and 39.73%
percentage specific [3H]RO6957022 binding (competition association) ([2]; Time 120 min): 27.67% and 36.63% and 31.55%
Agonist-mediated activation [3]: 0.9 ± 0.1 fold over its basal
Emax [4]: 17 ± 4%
percentage specific [3H]CP55,940 binding ([5]; log [ligand] (M) -5): 6.97% and 9.11% and 6.37%
percentage specific [3H]CP55,940 binding ([5]; log [ligand] (M) -6): 8.91% and 9.80% and 15.97%
percentage specific [3H]CP55,940 binding ([5]; log [ligand] (M) -7): 35.26% and 29.34% and 24.47%
percentage specific [3H]CP55,940 binding ([5]; log [ligand] (M) -8): 67.55% and 60.65% and 76.97%
percentage specific [3H]CP55,940 binding ([5]; log [ligand] (M) -9): 110.80% and 85.34% and 106.79%
percentage specific [3H]CP55,940 binding ([5]; log [ligand] (M) -10): 91.01% and 87.78% and 110.76%
Emax [6]: 183 ± 16%
Displacement (%) of [3H]CP55,940 ([7]; CB1R Quadruple TM1,7, 10 µM compound): 0 ± 25%
Emax ([8]; I110L mutant, at 10 µM compared to WT, read-out: Emax (%)): 101 ± 7%
SMILES: CC(C)(C)[C@@H](CO)NC(=O)c1nn(-c2c[n+]([O-])ccn2)c2c1C[C@@H]1C[C@H]21 [APD371]
percentage specific [3H]CP55,940 binding ([7]; CB1R QuadrupleTM1,7, 10 µM ligand, replicates 1-3): 125.90 percentage and 49.87 percentage and 125.34 percentage
[35S]GTPγS binding ([8]; log [ligand] (M) -5): 88.75 percentage of WT and 114.10 percentage of WT and 98.70 percentage of WT
[35S]GTPγS binding ([8]; log [ligand] (M) -6): 65.58 percentage of WT and 82.80 percentage of WT and 68.20 percentage of WT
[35S]GTPγS binding ([8]; log [ligand] (M) -7): 37.92 percentage of WT and 48.30 percentage of WT and 43.20 percentage of WT
[35S]GTPγS binding ([8]; log [ligand] (M) -8): 16.04 percentage of WT and -5.10 percentage of WT and 25.10 percentage of WT
[35S]GTPγS binding ([8]; log [ligand] (M) -9): 37.59 percentage of WT and -1.70 percentage of WT and -8.60 percentage of WT
[35S]GTPγS binding ([8]; log [ligand] (M) -10): -2.00 percentage of WT and -5.20 percentage of WT
